Among the test systems are SK-OV-3 ovarian; RPMI-8226 leukemia; NCI-H522 lung; SN12C renal; RXF 393 renal; OVCAR-4 ovarian; HCC-2998 colon; ACHN renal; A498 renal; KM12 colon.
Assay in all cases: growth of human tumour cells (NCI), 48 h

SMILES strings stand for the structures. Several values for one entry are separate records, joined by “and”; a condition that tells them apart may be missing. Equal values may be shown once.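 Dose response: 5 concentrations. Exposure: 48 h. Format: 96-well plates. Endpoint: linear interpolation; highest concentration if not reached. GI50: concentration for 50% inhibition of growth. Definition used: TGI = concentration required for complete inhibition of growth.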

On to `Nc1nc(OCc2ccccc2)c2[nH]cnc2n1`, for which the GI50 in the assay with SK-OV-3 ovarian was 21.8 µM and 20.8 µM; in the assay with RPMI-8226 leukemia, 50 µM and 21.6 µM; in the assay with NCI-H522 lung, 23.6 µM and 16.5 µM; in the assay on SN12C renal, 29.4 µM and 26.4 µM; in the assay on RXF 393 renal, 14.4 µM and 22.1 µM; in the assay with OVCAR-4 ovarian it was 41.2 µM and 43.4 µM. Further, the GI50 is 46.2 µM and 56 µM with HCC-2998 colon; 23.1 µM and 23.4 µM in the assay on ACHN renal; 15.2 µM with A498 renal; 59.6 µM and 62 µM in the assay with KM12 colon. The TGI was 71.9 µM and 160 µM and 60 µM in the assay with SK-OV-3 ovarian; 69 µM in the assay on RPMI-8226 leukemia; 135 µM and 69.4 µM with NCI-H522 lung; 400 µM and 193 µM with SN12C renal; 94.5 µM and 169 µM and 145 µM in the assay with RXF 393 renal; 365 µM and 528 µM in the assay with OVCAR-4 ovarian. Moreover, the TGI in the assay with HCC-2998 colon was 400 µM and 182 µM; in the assay on ACHN renal it was 244 µM and 125 µM; in the assay on A498 renal, 183 µM and 71.3 µM; with KM12 colon it was 400 µM and 307 µM.

For `O=S(=O)(Nc1cc(Sc2cccc3cccnc23)c(O)c2ccccc12)c1ccc(F)cc1`, the GI50 in the assay with SK-OV-3 ovarian was 3.23 µM; in the assay with RPMI-8226 leukemia, 2.09 µM; in the assay with NCI-H522 lung, 1.4 µM; in the assay on SN12C renal, 0.97 µM; in the assay with RXF 393 renal, 1.97 µM; with OVCAR-4 ovarian, 0.504 µM. The GI50 is 4.8 µM with HCC-2998 colon, 1.34 µM with ACHN renal, 3.96 µM with A498 renal and 2.48 µM in the assay on KM12 colon. Also, the TGI in the assay with SK-OV-3 ovarian was determined as 13.4 µM; with RPMI-8226 leukemia it was 7.36 µM; with NCI-H522 lung it was 3.9 µM; in the assay on SN12C renal it was 3.61 µM; with RXF 393 renal, 5.43 µM; in the assay with OVCAR-4 ovarian it was 1.8 µM. The TGI in the assay with HCC-2998 colon amounted to 15.6 µM; with ACHN renal, 7.78 µM; with A498 renal it was 24.1 µM; in the assay on KM12 colon, 14.2 µM.

Consider `CC(C)C[C@H](NC(=O)CNC(=O)c1cc(Cl)ccc1Cl)B1OC(=O)CC(CC(=O)O)(C(=O)O)O1` (some centres not stated), for which the GI50 was 0.261 µM with SK-OV-3 ovarian; 0.0321 µM in the assay on RPMI-8226 leukemia; 0.0217 µM in the assay on NCI-H522 lung; 0.0862 µM in the assay with SN12C renal; 0.0193 µM with RXF 393 renal; 0.0733 µM in the assay with OVCAR-4 ovarian. For the same molecule, the GI50 is 0.0326 µM with HCC-2998 colon, 0.0389 µM with ACHN renal, 0.0347 µM in the assay with A498 renal and 0.105 µM with KM12 colon. Moreover, the TGI in the assay with SK-OV-3 ovarian amounted to 29.6 µM; in the assay with NCI-H522 lung, 0.056 µM; with SN12C renal, 0.982 µM; in the assay with RXF 393 renal it was 0.0438 µM; with OVCAR-4 ovarian, 19 µM; in the assay on HCC-2998 colon, 0.105 µM. Further, the TGI is above 59.9 µM with ACHN renal, 0.164 µM in the assay with A498 renal and 0.607 µM in the assay on KM12 colon.

As for `COc1ccc(-c2nc(Nc3cc(C)[nH]n3)c3ccccc3n2)cc1`, the GI50 with SK-OV-3 ovarian is 1.39 µM; in the assay with RPMI-8226 leukemia, 4.16 µM; in the assay on NCI-H522 lung it was 1.67 µM; with SN12C renal it was 2.01 µM; with RXF 393 renal, 0.6 µM; with OVCAR-4 ovarian it was 2.34 µM. Besides, the GI50 is 3.35 µM in the assay on HCC-2998 colon, 0.801 µM with ACHN renal, 0.271 µM with A498 renal and 0.0994 µM in the assay with KM12 colon. The TGI in the assay with SK-OV-3 ovarian was above 100 µM; in the assay on RPMI-8226 leukemia, 28.6 µM; in the assay on NCI-H522 lung it was 19.8 µM; with SN12C renal, above 100 µM; with RXF 393 renal it was 2.67 µM; with OVCAR-4 ovarian, above 72.5 µM. Moreover, the TGI in the assay with HCC-2998 colon is above 77.4 µM; with ACHN renal it was above 100 µM; with A498 renal it was 1.46 µM; with KM12 colon, 29.1 µM.

For the molecule `CN=c1ccc2nc3ccc(N)cc3sc-2c1`, the GI50 with SK-OV-3 ovarian was 5.03 µM; in the assay on RPMI-8226 leukemia, 0.32 µM; in the assay on NCI-H522 lung, 1.33 µM; with SN12C renal, 2.47 µM; with RXF 393 renal, 8.29 µM; with OVCAR-4 ovarian, 0.689 µM. Also, the GI50 with HCC-2998 colon was 4.32 µM; in the assay on ACHN renal, 2.25 µM; in the assay with A498 renal, 79.5 µM; in the assay with KM12 colon, 2.07 µM. The TGI in the assay on SK-OV-3 ovarian came out at 24.7 µM; in the assay with RPMI-8226 leukemia it was 18 µM; in the assay with NCI-H522 lung, 7.97 µM; in the assay with SN12C renal, 12.5 µM; in the assay with RXF 393 renal, 23.9 µM; in the assay on OVCAR-4 ovarian it was 7.07 µM. The TGI in the assay with HCC-2998 colon was 38.6 µM; in the assay with ACHN renal it was 17.4 µM; in the assay on A498 renal, above 100 µM; in the assay with KM12 colon it was 20.1 µM.

In the case of `COc1cc(N2C(=O)[C@H](O)C2c2ccc(SC)cc2)cc(OC)c1OC` (some centres not stated), the GI50 in the assay with SK-OV-3 ovarian was 0.0142 µM; with RPMI-8226 leukemia, below 0.01 µM; in the assay on NCI-H522 lung, below 0.01 µM; in the assay on SN12C renal it was 0.0482 µM; in the assay on RXF 393 renal, below 0.01 µM; with OVCAR-4 ovarian, 0.0275 µM. In addition, the GI50 with HCC-2998 colon is 0.0238 µM; in the assay on ACHN renal it was below 0.01 µM; in the assay with A498 renal it was below 0.01 µM; in the assay with KM12 colon it was below 0.01 µM. In addition, the TGI in the assay with SK-OV-3 ovarian is above 100 µM; in the assay with RPMI-8226 leukemia it was 14.6 µM; with SN12C renal it was above 100 µM; in the assay on RXF 393 renal, above 100 µM; with OVCAR-4 ovarian it was above 100 µM; in the assay on HCC-2998 colon, 65.3 µM. Besides, the TGI with ACHN renal is 60.5 µM; with A498 renal it was 0.0882 µM; with KM12 colon, above 100 µM.

Consider `O=C(/C=C/c1cc2ccccc2[nH]c1=O)/C=C/c1cc2ccccc2[nH]c1=O`, for which the GI50 in the assay on SK-OV-3 ovarian was 31.4 µM; with RPMI-8226 leukemia, 4.02 µM; with SN12C renal, 12.6 µM; with RXF 393 renal, 6.88 µM; in the assay on OVCAR-4 ovarian it was 19.2 µM; in the assay with HCC-2998 colon it was 5.28 µM. Besides, the GI50 in the assay on ACHN renal is 11.2 µM; with A498 renal, above 50.1 µM; in the assay with KM12 colon, 4.32 µM. For the same molecule, the TGI in the assay on SK-OV-3 ovarian was above 100 µM; in the assay with RPMI-8226 leukemia, above 40.1 µM; in the assay on NCI-H522 lung it was above 47 µM; with SN12C renal, above 86.6 µM; in the assay with RXF 393 renal, 10.8 µM; in the assay with OVCAR-4 ovarian, above 100 µM. The TGI was 9.01 µM in the assay with HCC-2998 colon, above 95.3 µM in the assay with ACHN renal, above 100 µM in the assay on A498 renal and 8.59 µM in the assay with KM12 colon.

Consider `CC/C=C\C/C=C\C/C=C\CCCCCCCC(=O)OCC(O)CO` (configuration not stated), for which the TGI is above 100 µM with SK-OV-3 ovarian; above 77.7 µM in the assay on RPMI-8226 leukemia; above 77.1 µM in the assay with NCI-H522 lung; above 100 µM in the assay on SN12C renal; above 100 µM with RXF 393 renal; above 100 µM in the assay on OVCAR-4 ovarian. Moreover, the TGI with HCC-2998 colon was above 100 µM; in the assay with ACHN renal it was above 72.5 µM; with A498 renal, above 100 µM; in the assay on KM12 colon it was above 70.9 µM.

Values taken from PubChem BioAssay (NCI).
